Reference: the supplement of paper PMC10307832

What was measured:
Assay in all cases: relative viability (nuclei count vs DMSO), 5 days (fraction); higher = more cells survive
[1] = compound: CO[C@@H]1[C@H](N(C)C(=O)c2ccccc2)C[C@H]2O[C@]1(C)n1c3ccccc3c3c4c(c5c6ccccc6n2c5c31)C(=O)NC4 [Midostaurin] + C[C@]1(O)C[C@@H](c2nc(-c3ccc4ccc(-c5ccccc5)nc4c3)c3c(N)nccn32)C1 [Linsitinib] (partner 1 µM)
Method in brief: (§1)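 Medians of duplicate plates are given as relative viability. That measure is the nuclei count in treated wells divided by the count in vehicle wells. Counts were taken on 4× images of lung cancer cell lines in 1536-well plates, 5 days after pin-tool dosing the day after seeding with one drug alone or a fixed anchor-drug dose plus five library-drug doses (not always all listed) in √10 steps.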

[2] = compound: COc1cc(-c2nn([C@H]3CC[C@H](N4CCN(C(C)=O)CC4)CC3)c3ncnc(N)c23)ccc1NC(=O)c1cc2ccccc2n1C + CC(=O)c1c(C)c2cnc(Nc3ccc(N4CCNCC4)cn3)nc2n(C2CCCC2)c1=O [Palbociclib] (partner 0.5 µM)
Method in brief: as §1

[3] = compound: COc1cc(-c2nn([C@H]3CC[C@H](N4CCN(C(C)=O)CC4)CC3)c3ncnc(N)c23)ccc1NC(=O)c1cc2ccccc2n1C + Nc1ncn([C@H]2C[C@H](O)[C@@H](CO)O2)c(=O)n1 [Decitabine] (partner 2 µM)
Method in brief: as §1

[4] = compound: COc1cc(-c2nn([C@H]3CC[C@H](N4CCN(C(C)=O)CC4)CC3)c3ncnc(N)c23)ccc1NC(=O)c1cc2ccccc2n1C + CC1(C)CCC(c2ccc(Cl)cc2)=C(CN2CCN(c3ccc(C(=O)NS(=O)(=O)c4ccc(N[C@H](CCN5CCOCC5)CSc5ccccc5)c(S(=O)(=O)C(F)(F)F)c4)cc3)CC2)C1 [Navitoclax] (partner 0.5 µM)
Method in brief: as §1

[5] = compound: CO[C@@H]1[C@H](N(C)C(=O)c2ccccc2)C[C@H]2O[C@]1(C)n1c3ccccc3c3c4c(c5c6ccccc6n2c5c31)C(=O)NC4 [Midostaurin] + C[C@@H](Oc1cc(-c2cnn(C3CCNCC3)c2)cnc1N)c1c(Cl)ccc(F)c1Cl [Crizotinib] (partner 1 µM)
Method in brief: as §1

LXF-289
relative viability ([1]; first compound 0.01 µM): 1 | relative viability ([1]; first compound 0.03162 µM): 0.967 | relative viability ([1]; first compound 0.1 µM): 0.866 | relative viability ([1]; first compound 0.3162 µM): 0.953 | relative viability ([2]; first compound 0.0128 µM): 0.673 | relative viability ([2]; first compound 0.04048 µM): 0.648 | relative viability ([2]; first compound 0.128 µM): 0.549 | relative viability ([2]; first compound 1.28 µM): 0.706 | relative viability ([3]; first compound 0.0128 µM): 0.419 | relative viability ([3]; first compound 0.04048 µM): 0.368 | relative viability ([3]; first compound 0.128 µM): 0.369 | relative viability ([3]; first compound 1.28 µM): 0.362 | relative viability ([4]; first compound 0.0128 µM): 1.01 | relative viability ([4]; first compound 0.04048 µM): 0.886 | relative viability ([4]; first compound 0.128 µM): 0.967 | relative viability ([4]; first compound 1.28 µM): 0.959 | relative viability ([5]; first compound 0.01 µM): 0.815 | relative viability ([5]; first compound 0.03162 µM): 0.78 | relative viability ([5]; first compound 0.1 µM): 0.764 | relative viability ([5]; first compound 0.3162 µM): 0.831

NCI-H23
relative viability ([1]; first compound 0.01 µM): 0.53 | relative viability ([1]; first compound 0.03162 µM): 0.698 | relative viability ([1]; first compound 0.1 µM): 0.362 | relative viability ([1]; first compound 0.3162 µM): 0.508 | relative viability ([2]; first compound 0.0128 µM): 0.47 | relative viability ([2]; first compound 0.04048 µM): 0.519 | relative viability ([2]; first compound 0.128 µM): 0.508 | relative viability ([2]; first compound 1.28 µM): 0.4 | relative viability ([3]; first compound 0.0128 µM): 0.283 | relative viability ([3]; first compound 0.04048 µM): 0.291 | relative viability ([3]; first compound 0.128 µM): 0.291 | relative viability ([3]; first compound 1.28 µM): 0.298 | relative viability ([4]; first compound 0.0128 µM): 0.825 | relative viability ([4]; first compound 0.04048 µM): 0.549 | relative viability ([4]; first compound 0.128 µM): 0.716 | relative viability ([4]; first compound 1.28 µM): 0.77 | relative viability ([5]; first compound 0.01 µM): 0.479 | relative viability ([5]; first compound 0.03162 µM): 0.512 | relative viability ([5]; first compound 0.1 µM): 0.355 | relative viability ([5]; first compound 0.3162 µM): 0.41

NCI-H322M
relative viability ([1]; first compound 0.01 µM): 0.993 | relative viability ([1]; first compound 0.03162 µM): 0.945 | relative viability ([1]; first compound 0.1 µM): 1.08 | relative viability ([1]; first compound 0.3162 µM): 1.08 | relative viability ([2]; first compound 0.0128 µM): 0.426 | relative viability ([2]; first compound 0.04048 µM): 0.516 | relative viability ([2]; first compound 0.128 µM): 0.434 | relative viability ([2]; first compound 1.28 µM): 0.394 | relative viability ([3]; first compound 0.0128 µM): 0.659 | relative viability ([3]; first compound 0.04048 µM): 0.682 | relative viability ([3]; first compound 0.128 µM): 0.648 | relative viability ([3]; first compound 1.28 µM): 0.63 | relative viability ([4]; first compound 0.0128 µM): 1.36 | relative viability ([4]; first compound 0.04048 µM): 1.09 | relative viability ([4]; first compound 0.128 µM): 1.18 | relative viability ([4]; first compound 1.28 µM): 1.12 | relative viability ([5]; first compound 0.01 µM): 0.982 | relative viability ([5]; first compound 0.03162 µM): 0.948 | relative viability ([5]; first compound 0.1 µM): 0.912 | relative viability ([5]; first compound 0.3162 µM): 0.905

NCI-H441
relative viability ([1]; first compound 0.01 µM): 0.569 | relative viability ([1]; first compound 0.03162 µM): 0.56 | relative viability ([1]; first compound 0.1 µM): 0.432 | relative viability ([1]; first compound 0.3162 µM): 0.435 | relative viability ([2]; first compound 0.0128 µM): 0.248 | relative viability ([2]; first compound 0.04048 µM): 0.167 | relative viability ([2]; first compound 0.128 µM): 0.228 | relative viability ([2]; first compound 1.28 µM): 0.152 | relative viability ([3]; first compound 0.0128 µM): 0.246 | relative viability ([3]; first compound 0.04048 µM): 0.286 | relative viability ([3]; first compound 0.128 µM): 0.321 | relative viability ([3]; first compound 1.28 µM): 0.24 | relative viability ([4]; first compound 0.0128 µM): 0.868 | relative viability ([4]; first compound 0.04048 µM): 0.798 | relative viability ([4]; first compound 0.128 µM): 0.91 | relative viability ([4]; first compound 1.28 µM): 0.581 | relative viability ([5]; first compound 0.01 µM): 0.778 | relative viability ([5]; first compound 0.03162 µM): 0.807 | relative viability ([5]; first compound 0.1 µM): 0.596 | relative viability ([5]; first compound 0.3162 µM): 0.764

NCI-H460
relative viability ([1]; first compound 0.01 µM): 0.739 | relative viability ([1]; first compound 0.03162 µM): 0.732 | relative viability ([1]; first compound 0.1 µM): 0.75 | relative viability ([1]; first compound 0.3162 µM): 0.694 | relative viability ([2]; first compound 0.0128 µM): 0.17 | relative viability ([2]; first compound 0.04048 µM): 0.133 | relative viability ([2]; first compound 0.128 µM): 0.148 | relative viability ([2]; first compound 1.28 µM): 0.153 | relative viability ([3]; first compound 0.0128 µM): 0.495 | relative viability ([3]; first compound 0.04048 µM): 0.452 | relative viability ([3]; first compound 0.128 µM): 0.451 | relative viability ([3]; first compound 1.28 µM): 0.433 | relative viability ([4]; first compound 0.0128 µM): 1.2 | relative viability ([4]; first compound 0.04048 µM): 1.41 | relative viability ([4]; first compound 0.128 µM): 1.03 | relative viability ([4]; first compound 1.28 µM): 0.862 | relative viability ([5]; first compound 0.01 µM): 0.903 | relative viability ([5]; first compound 0.03162 µM): 0.75 | relative viability ([5]; first compound 0.1 µM): 0.898 | relative viability ([5]; first compound 0.3162 µM): 0.787

NCI-H520
relative viability ([1]; first compound 0.01 µM): 0.924 | relative viability ([1]; first compound 0.03162 µM): 0.991 | relative viability ([1]; first compound 0.1 µM): 0.968 | relative viability ([1]; first compound 0.3162 µM): 0.787 | relative viability ([2]; first compound 0.0128 µM): 0.197 | relative viability ([2]; first compound 0.04048 µM): 0.227 | relative viability ([2]; first compound 0.128 µM): 0.206 | relative viability ([2]; first compound 1.28 µM): 0.12 | relative viability ([3]; first compound 0.0128 µM): 0.508 | relative viability ([3]; first compound 0.04048 µM): 0.502 | relative viability ([3]; first compound 0.128 µM): 0.436 | relative viability ([3]; first compound 1.28 µM): 0.368 | relative viability ([4]; first compound 0.0128 µM): 1.16 | relative viability ([4]; first compound 0.04048 µM): 1.06 | relative viability ([4]; first compound 0.128 µM): 0.995 | relative viability ([4]; first compound 1.28 µM): 0.861 | relative viability ([5]; first compound 0.01 µM): 0.69 | relative viability ([5]; first compound 0.03162 µM): 0.668 | relative viability ([5]; first compound 0.1 µM): 0.691 | relative viability ([5]; first compound 0.3162 µM): 0.525

NCI-H647
relative viability ([1]; first compound 0.01 µM): 1.09 | relative viability ([1]; first compound 0.03162 µM): 1.37 | relative viability ([1]; first compound 0.1 µM): 1.1 | relative viability ([1]; first compound 0.3162 µM): 0.738 | relative viability ([2]; first compound 0.0128 µM): 0.391 | relative viability ([2]; first compound 0.04048 µM): 0.382 | relative viability ([2]; first compound 0.128 µM): 0.4 | relative viability ([2]; first compound 1.28 µM): 0.216 | relative viability ([3]; first compound 0.0128 µM): 0.451 | relative viability ([3]; first compound 0.04048 µM): 0.424 | relative viability ([3]; first compound 0.128 µM): 0.406 | relative viability ([3]; first compound 1.28 µM): 0.364 | relative viability ([4]; first compound 0.0128 µM): 1.29 | relative viability ([4]; first compound 0.04048 µM): 1.18 | relative viability ([4]; first compound 0.128 µM): 1.06 | relative viability ([4]; first compound 1.28 µM): 0.669 | relative viability ([5]; first compound 0.01 µM): 1.06 | relative viability ([5]; first compound 0.03162 µM): 0.802 | relative viability ([5]; first compound 0.1 µM): 0.832 | relative viability ([5]; first compound 0.3162 µM): 0.416

NCI-H727
relative viability ([1]; first compound 0.01 µM): 0.329 | relative viability ([1]; first compound 0.03162 µM): 0.337 | relative viability ([1]; first compound 0.1 µM): 0.349 | relative viability ([1]; first compound 0.3162 µM): 0.227 | relative viability ([2]; first compound 0.0128 µM): 0.615 | relative viability ([2]; first compound 0.128 µM): 0.553 | relative viability ([2]; first compound 1.28 µM): 0.583 | relative viability ([3]; first compound 0.0128 µM): 0.925 | relative viability ([3]; first compound 0.128 µM): 1.01 | relative viability ([3]; first compound 1.28 µM): 0.84 | relative viability ([4]; first compound 0.0128 µM): 0.408 | relative viability ([4]; first compound 0.128 µM): 0.463 | relative viability ([4]; first compound 1.28 µM): 0.289 | relative viability ([5]; first compound 0.01 µM): 0.861 | relative viability ([5]; first compound 0.03162 µM): 0.524 | relative viability ([5]; first compound 0.1 µM): 0.729 | relative viability ([5]; first compound 0.3162 µM): 0.459
